Patent publication US9415040B2 (priority 2008, dated 2016)

Key:
[1] = test system: LuxN F163A/R245L/S184N/G271D; settings: quadruple mutant LuxN F163A/R245L/S184N/G271D; EC50 could not be determined
LuxN S205P = settings: even at 500 μM AI-1, EC50 could not be assigned
LuxN E233A = settings: even at 500 μM AI-1, EC50 could not be assigned
LuxN P226T = settings: even at 500 μM AI-1, EC50 could not be assigned
LuxN F202A = settings: even at 500 μM AI-1, EC50 could not be assigned
[2] = test system: Chromobacterium violaceum

SMILES | Light production phenotype with AI-1 [1] | Light production phenotype with AI-1 (LuxN S205P) | Light production phenotype with AI-1 (LuxN E233A) | Light production phenotype with AI-1 (LuxN P226T) | Light production phenotype with AI-1 (LuxN F202A) | Median survival of C. elegans [2] [days]
CC(O)CC(=O)NC1CCOC1=O (stereo not drawn) [AI-1, 3-hydroxybutanoyl homoserine lactone] | constitutively bright at all AI-1 concentrations | dark phenotype | dark phenotype | dark phenotype | dark phenotype | –
N[C@H]1CCOC1=O [HSL] | – | – | – | – | – | 4
